# Patent publication US7612073B2, “Methods of administering tetrahydrobiopterin, associated compositions, and methods of measuring” (Biomarin Pharmaceutical Inc., priority 2007, dated 2009)
# Entries after “also recorded” stand apart in the source; their conditions may differ.
# Legend:
# [1] = design: species or system rats and monkeys; settings: rat, monkey, in vivo
# From the text: Such variability in absorption of BH4 was also shown in a study described herein on the effect of food on the bioavailability of BH4 in healthy humans.
# physchem [2] = assay type: physicochemical
# From the text: Although there is ample literature describing increased bioavailability in fed conditions, this food effect is typically seen with lipophilic (i.e., lipid soluble) water-insoluble drugs and not usually with high water soluble active substance such as BH4. The usual explanation for increases in bioavailability under fed conditions for lipophilic compounds is that high fat meals help solubilize the drug since “like dissolves like” and this makes it available for absorption. Another possible explanation is that high fat meals stimulate the secretion of bile acids which are natural bio-surfactants that help solubilize and emulsify the fats we eat to aid their digestion. These bile acids are also thought to solubilize water-insoluble compounds thereby making them available for absorption. […] Therefore the enhancement of its bioavailability by high fat, high-energy meals is not consistent with such known mechanism.
# [3] = safety and tolerability of single oral doses of BH4 in healthy subjects; assay type: in vivo, human
# Experimental: Safety was evaluated for all subjects who take at least one dose of BH4.
# Safety was evaluated by recording the incidence of adverse events, changes in 12-lead ECG parameters, vital signs and physical examination results, and changes in baseline in laboratory test values.
# In this study, an adverse event (AE) was defined as any untoward medical occurrence in a subject or clinical investigation subject administered BH4, at any dose, whether or not it has a causal relationship with the event. An AE can therefore be any unfavorable and unintended sign (including an abnormal laboratory finding), symptom, or disease temporally associated with the use of BH4, whether or not related to BH4. This definition included intercurrent illnesses or injuries and exacerbation (increase in frequency, severity or specificity) of pre-existing conditions.
# A serious adverse event (SAE) was defined as any AE that has at least one of the following outcomes: […]
# physchem [4] = assay type: physicochemical; settings: for Estimated t1/2 Based on t1/2 Obtained at pH 3 (Min) / half-life: buffer
# Experimental: However, administration as a solid or semi-solid dosage form and/or with a high-fat meal may maximize bioavailability by increasing the residence time of BH4 in the acidic milieu of the stomach and upper gastrointestinal tract (GIT) where BH4 is chemically stable. […] At pH 3.1, which is within realm of the typical pH of the stomach in normal volunteers, the stability of BH4 at a concentration of 1 mg/mL is over 3 hours. The chemical stability of BH4 may further increase when the pH of the stomach drops below pH 3.1. Therefore prolonged stomach residence time provides intact drug to the stomach wall for absorption, whereas rapid emptying into the intestine degrades BH4 and is thus not available to be absorbed.
# In general, the objective of this study was to evaluate the stability of BH4 in buffer solutions ranging in pH from pH 1 to 7 (See Table 15) and in the presence and absence of antioxidants and with or without inert gas in the reaction solutions (See Table 16).
# The stability of BH4 is expected to be temperature-dependent. Therefore, the compound stability was evaluated at 2-8° C., 25° C., 30° C. and 37° C. to support the determination of predictive long-term shelf lives for the compound at different temperatures. Determination of the stability of the compound at the physiologic temperature of 37° C. provides data to support the estimation of the stability lifetime of a formulated oral dosage form in the absorptive regions of the GI tract.
# Based on this approximation, pH 1.2 to pH 3 solutions were sampled weekly initially and sampling time corrections were made if necessary after the first 2 data points were collected.
# Studies were conducted in pH 1-7 buffer solutions and at 5° C., 25° C., 30° C. and 37° C.
# [5] = rat, radioactive markers in urine
# [6] = relative bioavailability of dissolved vs intact tablets and effect of food in healthy subjects; assay type: in vivo, human
# From the text: The primary objectives of the study were: (1) to evaluate the relative bioavailability of tetrahydrobiopterin (BH4, sapropterin dihydrochloride) when administered after dissolution of tablet(s) in water or administered as intact tablet(s); (2) to compare the effect of food on the bioavailability of BH4 in healthy subjects. The secondary objective of the study was to assess the safety and tolerability of single oral doses of BH4 in healthy subjects.
# This study was an open-label, randomized, three-treatment, six-sequence, three-period crossover study in which 30 subjects were to complete 3 single-dose dosing periods and were randomized to one of six sequence groups (Groups 1, 2, 3, 4, 5, and 6): […]
# where all dosing groups received BH4 10 mg/kg orally as follows: a: administered after dissolution of tablet(s) in water given in fasting under fasting conditions b: administered as intact tablet(s) given in fasting under fasting conditions c: administered as intact tablet(s) given 30 minutes after beginning to ingest a high-calorie, high-fat meal in fed conditions Each subject received a single dose of 10 mg/kg of BH4 during each treatment period. A washout period of at least seven days separated each dose administration. A post-study assessment was performed 5-7 days after discharge of the third treatment period. Blood samples for Pharmacokinetic (PK) analysis were drawn at scheduled collection times during each study period: within 30 minutes prior to dose, and 0.5, 1.0, 1.5, 2.0, 2.5, 3.0, 3.5, 4.0, 5.0, 6.0, 8.0, 10.0, 12.0, 18.0, and 24.0 hours post-dose.
# Blood (plasma) pharmacokinetic (PK) characteristics were assessed after each dose of study medication. All subjects remained seated in an upright position for 4 hours post-dose. The blood samples were drawn within 30 minutes prior to dose and at 0.5, 1.0, 1.5, 2.0, 2.5, 3.0, 3.5, 4.0, 5.0, 6.0, 8.0, 10.0, 12.0, 18.0, and 24.0 hours post dose. Samples were collected in appropriately labeled 6 mL K2-EDTA purple top Vacutainer® tubes. Blood samples were centrifuged at approximately 3000 rpm at 4° C. for 10 minutes. From the resulting plasma, exactly 1 mL was removed from each sample using a pipet, and placed into an aliquot tube containing 0.1% w/v dithioerythritol. The sample was capped and vortexed for approximately 10 seconds using a VWR Mini Vortexer at speed 6. After completion of these steps, the sample was flash frozen in an isopropyl/dry ice bath and placed in a −70° C. freezer pending analysis.
# Pharmacokinetic (PK) analysis of plasma BH4 concentration-time data was performed using non-compartmental methods to obtain estimates of the following PK parameters: • Peak plasma concentration (Cmax) and time to peak concentration (Tmax), obtained directly from the data without interpolation; • λz, the apparent terminal elimination rate constant, determined by log-linear regression of the terminal plasma concentrations; • Area under the plasma concentration-time curve from time zero to the time of last measurable concentration [AUC(0-t)], calculated by the linear trapezoidal method; • The apparent elimination half-life (t½), calculated as 0.693/λz; • Area under the plasma concentration-time curve from time 0 to infinity [AUC(inf)] where AUC(inf)=AUC(0-t)+Ct/λz and Ct is the last measurable concentration. Estimation of Absorption Rate […]
# Comparison of the pharmacokinetic parameters Cmax, AUC(0-t), and AUC(inf) for BH4 was conducted using an analysis of variance (ANOVA) model with sequence, subject within sequence, treatment, and period as the classification variables using the natural logarithms of the parameters as the dependent variables. The comparisons of interest were between the dissolved and intact tablet in the fasted state and the intact tablet in the fed and fasted states.
# [7] = pharmacokinetics of sapropterin after a single oral administration in cynomolgus monkeys; assay type: in vivo, female cynomolgus monkeys; settings: monkey, 10 mg/kg oral
# Experimental: A single dose of sapropterin (10 mg/kg) was administered orally to female cynomolgus monkeys (3/group) under fasting conditions.
# [8] = water adsorption (hygroscopicity) of crystal forms; assay type: physicochemical; settings: dihydrochloride
smiles,measurement,setting,value
"C[C@H](O)[C@H](O)[C@H]1CNc2nc(N)[nH]c(=O)c2N1 [BH4, 6R-(L-erythro)-5,6,7,8-tetrahydrobiopterin]",BH4 absorbed in the gut,[1],8-11%
same,solubility,physchem [2],> 1000 mg/mL
same,"study exit assessments, ECG and physical examination evaluations","[3]; human, in vivo",no clinically significant findings
same,adverse events assessed as mild,[3]; of 9 AEs,8 AEs
same,adverse events assessed as moderate in severity,[3]; of 9 AEs,1 AEs
same,events judged possibly related to the study drug,[3]; of 9 AEs,4 events
same,events judged unrelated to the study drug,[3]; of 9 AEs,five
same,subjects reporting adverse events,[3]; single 10 mg/kg oral doses,5 subjects
same,total adverse events reported,[3]; single 10 mg/kg oral doses,9 adverse events
same,serious adverse events (SAEs),"[3]; single 10 mg/kg oral doses, healthy subjects, 10 mg/kg",no serious adverse events; also recorded: no AEs considered serious
same,dependence of rate of degradation of BH4,physchem [4],concentration-dependent
same,effect of sparging on stability of BH4,physchem [4],substantially enhanced the stability
same,stability of BH4 at pH 3.1,"physchem [4]; 1 mg/mL, pH 3.1",over 3 hours
same,Estimated t1/2 Based on t1/2 Obtained at pH 3 (Min),physchem [4]; pH 2,177690.0 (123.4 days) Min
same,Estimated t1/2 Based on t1/2 Obtained at pH 3 (Min),physchem [4]; pH 3,17769.0 (12.34 days) Min
same,half-life,physchem [4]; pH 3,12.3 days
same,half-life,physchem [4]; pH 3.1,12.3 days
same,Estimated t1/2 Based on t1/2 Obtained at pH 3 (Min),physchem [4]; pH 4,1776.9 (1.23 days) Min
same,Estimated t1/2 Based on t1/2 Obtained at pH 3 (Min),physchem [4]; pH 5,177.7 (0.12 days) Min
same,Estimated t1/2 Based on t1/2 Obtained at pH 3 (Min),physchem [4]; pH 6,17.7 (0.01 days) Min
same,half-life,physchem [4]; pH 6.8,~0.0104 days
same,Estimated t1/2 Based on t1/2 Obtained at pH 3 (Min),physchem [4]; pH 7,1.8 Min
same,rate of GI absorption,[5],8.8%
same,"median and range for Tmax, dissolved vs intact tablets","[6]; 10 mg/kg oral, fasted",essentially the same
same,upper limits of 90% confidence intervals of intact-to-dissolved ratios,"[6]; 10 mg/kg oral, fasted",greater than 125%
same,"increase in the extent of absorption, intact tablet compared to dissolved tablet","[6]; 10 mg/kg oral, healthy subjects",~20%
same,"average increase in Cmax and AUC, intact tablet relative to dissolved tablets",[6]; fasted conditions,20%
same,increase in Cmax and AUC after a high fat/high calorie meal,[6]; intact tablet,approximately 30%
same,"median and range for Tmax, fed vs fasted conditions",[6]; intact tablet 10 mg/kg,essentially the same
same,upper limits of 90% confidence intervals of fed-to-fasted ratios,[6]; intact tablet 10 mg/kg,greater than 125%
same,increase in Cmax and AUC after a high fat/high calorie meal,[6]; tablet dissolved in water,~80%
same,ratio of reduced biopterin to total biopterins during the test period,[7],nearly constant
"C[C@H](O)[C@H](O)[C@H]1CNc2nc(N)[nH]c(=O)c2N1.Cl.Cl [Polymorph A, (6R)-L-erythro-tetrahydrobiopterin dihydrochloride]",water content adsorbed (hygroscopicity),[8],about 3 percent by weight
"C[C@H](O)[C@H](O)[C@H]1CNc2nc(N)[nH]c(=O)c2N1.Cl.Cl [Polymorph F, (6R)-L-erythro-tetrahydrobiopterin dihydrochloride]",water content adsorbed (hygroscopicity),[8],about 3 percent by weight
"C[C@H](O)[C@H](O)[C@H]1CNc2nc(N)[nH]c(=O)c2N1.Cl.Cl [Polymorph K, (6R)-L-erythro-tetrahydrobiopterin dihydrochloride]",water content adsorbed (hygroscopicity),[8],about 2.0 percent by weight
